Paper PMC9968717, “Breakthrough: a first-in-class virtual simulator for dose optimization of ACE inhibitors in translational cardiovascular medicine” (Scientific Reports, 2023)
Structures can show the parent of a compound that is named as a salt.

Experiments:
[1] = dog, in vivo; cited from earlier work
[2] = Animal safety monitoring of study dogs given oral benazepril; format: in vivo; details: healthy beagles; benazepril PO 0.125 mg/kg q12h, 0.25 mg/kg q12h, 0.5 mg/kg q24h (crossover)
Excerpt: All study dogs received all oral doses of benazepril as intended. Dogs were monitored for adverse effects associated with benazepril labeling as well those associated with general animal welfare e.g., vomiting, diarrhea, inappetence, weakness/hypotension, fatigue, incoordination, hypercreatininemia.
Nine purpose-bred laboratory beagles (5 castrated males and 4 spayed females), 40–42 months old, weighing 9.0–13.5 kg were randomized based on body weight and sex into three oral dosing groups of benazepril. Systemic and cardiovascular health of all dogs was confirmed prior to the study with physical examination, routine laboratory screening (complete blood count, serum biochemical analysis), blood pressure measurement, and echocardiography.
This 35-day prospective study was divided into three periods with three different benazepril dosing groups: (A) 0.125 mg/kg q12hr PO, (B) 0.25 mg/kg q12hr PO, and (C) 0.5 mg/kg q24hr PO. All dogs received all treatments using a […] crossover (ABC/BCA/CAB) design. Dogs were sampled in the same order at each time point and exact time of sampling was recorded. […]
Venous blood samples were collected from an external jugular or cephalic vein with a 1 inch, 20-gauge or 22-gauge needle attached to a 6 mL syringe. […] Samples for complete blood counts or serum chemistry panels were analyzed by the Iowa State Clinical Pathology Laboratory.

ACE activity = details: dogs, cited from earlier work; for Duration of ACE suppression: single dose 0.5 mg/kg
ACE = molecular target: T1, ACE (Canis lupus familiaris, UniProt A0A8I3S3I6); assay: Michaelis–Menten model of ACE inhibition by benazeprilat within the QSP model fit; format: in vivo, dogs (beagles); details: population estimate, beagles
T1 construct: from tissue; host or cells: living healthy beagle dogs; ACE in free circulation (plasma) and in tissue
T1 sequence (A0A8I3S3I6 31-1241): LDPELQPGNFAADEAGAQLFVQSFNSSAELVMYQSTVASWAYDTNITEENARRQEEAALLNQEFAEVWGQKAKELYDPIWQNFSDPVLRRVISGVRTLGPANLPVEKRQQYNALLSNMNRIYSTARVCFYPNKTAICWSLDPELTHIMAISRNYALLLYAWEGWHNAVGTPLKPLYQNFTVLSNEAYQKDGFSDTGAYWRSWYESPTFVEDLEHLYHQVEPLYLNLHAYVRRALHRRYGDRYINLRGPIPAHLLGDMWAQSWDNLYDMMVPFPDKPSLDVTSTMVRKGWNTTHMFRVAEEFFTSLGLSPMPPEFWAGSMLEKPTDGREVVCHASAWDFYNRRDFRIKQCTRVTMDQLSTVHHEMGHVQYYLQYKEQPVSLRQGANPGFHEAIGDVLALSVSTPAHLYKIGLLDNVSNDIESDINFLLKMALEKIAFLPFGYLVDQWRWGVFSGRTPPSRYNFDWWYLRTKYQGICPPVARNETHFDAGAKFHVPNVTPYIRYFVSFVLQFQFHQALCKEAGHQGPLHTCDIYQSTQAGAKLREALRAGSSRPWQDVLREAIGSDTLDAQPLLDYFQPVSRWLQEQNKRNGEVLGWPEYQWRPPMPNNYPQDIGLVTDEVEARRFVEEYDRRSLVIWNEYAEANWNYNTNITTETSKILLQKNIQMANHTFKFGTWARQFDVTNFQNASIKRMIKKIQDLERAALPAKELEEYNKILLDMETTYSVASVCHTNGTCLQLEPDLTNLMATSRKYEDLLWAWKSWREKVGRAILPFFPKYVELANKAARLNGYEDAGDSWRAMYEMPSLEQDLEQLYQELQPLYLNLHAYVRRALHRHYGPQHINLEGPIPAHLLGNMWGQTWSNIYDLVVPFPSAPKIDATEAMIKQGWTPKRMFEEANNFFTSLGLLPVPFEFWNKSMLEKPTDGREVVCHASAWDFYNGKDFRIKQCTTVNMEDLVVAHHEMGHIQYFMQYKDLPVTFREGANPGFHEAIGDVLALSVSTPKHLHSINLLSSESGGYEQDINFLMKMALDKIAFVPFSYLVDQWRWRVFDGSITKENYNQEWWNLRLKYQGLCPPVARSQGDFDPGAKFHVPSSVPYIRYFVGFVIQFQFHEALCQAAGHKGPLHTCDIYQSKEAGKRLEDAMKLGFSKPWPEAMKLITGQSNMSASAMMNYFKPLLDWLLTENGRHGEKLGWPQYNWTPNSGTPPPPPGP
Excerpt: Benazeprilat primary mechanism of action is inhibiting ACE to prevent the catalysis of AngI into AngII. To account for this mechanism, a logistic saturation model was first implemented. […] The distribution of ACE across tissue (ts) and free circulation (fr) was also considered. The nomenclature used throughout Eq. (3) is consistent with previous descriptions of the Michaelis–Menten model[26].3 E˙fr=-k-1·Efr·Sfr+k1·ESfr-k-3·Efr·Ifr+k3·EIfr+k2·ESfrE˙Sfr=k-1·Efr·Sfr-k1·ESfr-k2·ESfrE˙Ifr=k-3·Efr·Ifr-k3·EIfrE˙ts=-k-1·Ets·Sts+k1·ESts-k-3·Ets·Its+k3·EIts+k2·EStsE˙Sts=k-1·Ets·Sts-k1·ESts-k2·EStsE˙Its=k-3·Ets·Its-k3·EIts
Figure 3 Detailed model diagram. Detailed diagram of the final model structure. […] A Michaelis–Menten kinetic model of inhibitor, substrate, and enzyme interaction was used to describe the competitive inhibition of ACE by benazeprilat. k3 and k-3 were the parameters governing ACE-benazeprilat (enzyme-inhibitor) association and dissociation, while k1 and k-1 determined the rate of ACE-angiotensin (enzyme–substrate) association and dissociation. k2 controlled the production rate of angiotensin II from angiotensin I via ACE. […]
The recorded data (yij) were imported into Monolix […] (Lixoft, France) and used to estimate population parameters (μ) and variance via the stochastic approximation expectation maximization algorithm (SAEM)[46]. […]

[3] = NLME/QSP model fit of plasma benazeprilat pharmacokinetics after oral benazepril; format: in vivo, dogs (beagles); details: beagle, dog, population estimate, beagles, read-out: Clearance rate of benazeprilat (ClI), fixed effect (converted)
Description: The PK portion of the base model was a conventional 2-compartment mammillary model with saturable exchange between the central and peripheral compartments. Building on this initial model, several modifications of the PK structure were evaluated. First, several standard compartment variations were tested i.e., using 1-, 2-, or 3-compartment disposition functions. Overall, a 2-compartment PK model outperformed the other candidate models based on the precision of individual parameters and overall quality of fit. Second, non-specific (low affinity, high capacity) binding of benazeprilat to plasma proteins was represented by a 3rd compartment within the central compartment, i.e., representing the free circulation of benazeprilat. The volume of the non-specific binding compartment (Vns) is a representation of the relative binding capacity of benazeprilat which is distributed in plasma but is not freely circulating or interacting with ACE. […] As is typical, quantity of benazeprilat passed between compartments is called Im, n, for inhibitor, where indexes m and n represent origin and destination compartments, respectively. […] Doses are administered in benazepril hcl, but are measured as the metabolite-benazeprilat. […] Dogs were sampled in the same order at each time point and exact time of sampling was recorded. […] The benazepril dose was calculated to the nearest 1.25 mg increment. […]

[4] = single PO dose, ref 2 (b6), ref 17 King et al.

Row | Rate of ACE-benazeprilat dissociation in vivo, scaled (k3s), fixed effect (ACE) [s⁻¹] | clearance [3] [mL/min] | Structure (SMILES) | Dose up to which safety has been established [1] | Adverse effects [2] | Serial complete blood counts and chemistry panels: hematologic or biochemical abnormalities [2] | Dosage from which ACE inhibition in plasma was independent of dosage (ACE activity; [4]) [mg/kg] | Duration of suppression of ACE activity (ACE activity; [4]) | Duration of ACE suppression (ACE activity) [h]
1 | – | – | CCOC(=O)[C@H](CCc1ccccc1)N[C@H]1CCc2ccccc2N(CC(=O)O)C1=O [benazepril, Benazepril hydrochloride] | up to 1 mg/kg q24h | No adverse effects were observed | no evidence of hematologic or biochemical abnormalities | ≥ 0.25 | up to 24 h | < 12
2 | 7.0 | 455 | O=C(O)CN1C(=O)[C@@H](N[C@@H](CCc2ccccc2)C(=O)O)CCc2ccccc21 [benazeprilat] | – | – | – | – | – | –
3 | – | – | CCOC(=O)[C@H](CCc1ccccc1)N[C@@H](C)C(=O)N1CCC[C@H]1C(=O)O [enalapril] | – | – | – | – | – | < 12
